PubChem BioAssay AID180 (DTP/NCI, 2004)
Where “and” joins values, the source holds several entries; their conditions need not be identical. Identical values can stand only once.

Test system: BDF1 mice, Adenocarcinoma 755 s.c., tumor weight T/C
Test: NCI In Vivo Anticancer Drug Screen. Data for tumor model Adenocarcinoma 755 (subcutaneous) in B6D2F1 (BDF1) mice
Settings: endpoint: mean tumor weight, higher = larger tumour
Summary of the method: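 Tumor-bearing mice receive test compound while controls get vehicle alone. Antitumor effect is scored from survival or tumor dimensions as a T/C quotient.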

[1] = dose: 100.0 mg/kg/injection, schedule: Q01DX011 (ip), vehicle: saline
[2] = dose: 15.0 mg/kg/injection, schedule: Q01DX011 (ip), vehicle: methylcellulose (MC)
[3] = dose: 31.0 mg/kg/injection, schedule: Q01DX011 (ip), vehicle: methylcellulose (MC)
[4] = dose: 250.0 mg/kg/injection, schedule: Q01DX011 (ip), vehicle: methylcellulose (MC)
[5] = dose: 6.0 mg/kg/injection, schedule: Q01DX011 (ip), vehicle: carboxymethylcellulose (CMC)
[6] = dose: 2.5 mg/kg/injection, schedule: Q01DX011 (ip), vehicle: carboxymethylcellulose (CMC)
[7] = dose: 5.0 mg/kg/injection, schedule: Q01DX011 (ip), vehicle: carboxymethylcellulose (CMC)
[8] = dose: 15.0 mg/kg/injection, schedule: Q01DX011 (ip), vehicle: carboxymethylcellulose (CMC)
[9] = dose: 25.0 mg/kg/injection, schedule: Q01DX011 (ip), vehicle: methylcellulose (MC)

OC1c2cc(Cl)ccc2-c2c(Cl)cc(Cl)cc21 (stereo not given)
T/C (dose: 50.0 mg/kg/injection, schedule: Q01DX011 (ip), vehicle: other): 37 % of control | T/C (dose: 100.0 mg/kg/injection, schedule: Q01DX011 (ip), vehicle: other): 41 % of control | T/C (dose: 200.0 mg/kg/injection, schedule: Q01DX011 (ip), vehicle: other): 19 % of control | T/C (dose: 400.0 mg/kg/injection, schedule: Q01DX011 (ip), vehicle: other): 10 % of control

C[N+](C)(C)c1ncnc2c1ncn2C1CCCCO1 (stereo not given)
T/C (dose: 33.0 mg/kg/injection, schedule: Q01DX011 (ip), vehicle: saline): 58 % of control | T/C [1]: 12 % of control

CSc1ncc(Br)c(Nc2ccc(C)cc2)n1
T/C [2]: 75 % of control | T/C [3]: 74 % of control | T/C (dose: 62.0 mg/kg/injection, schedule: Q01DX011 (ip), vehicle: methylcellulose (MC)): 75 % of control | T/C (dose: 125.0 mg/kg/injection, schedule: Q01DX011 (ip), vehicle: methylcellulose (MC)): 92 % of control | T/C [4]: 68 % of control

CC(=O)[C@H]1CC[C@H]2[C@@H]3CCC4=CC(=O)CC[C@]4(C)[C@H]3CC[C@]12C
T/C (dose: 250.0 mg/kg/injection, schedule: Q01DX011 (sc), vehicle: steriod suspending solution): 97 % of control | T/C (dose: 500.0 mg/kg/injection, schedule: Q01DX011 (sc), vehicle: steriod suspending solution): 46 % of control

[I][Hg][CH2]C1OC2CCC1C[CH]2[Hg][I] (stereo not given)
T/C [5]: 89 % of control

CSc1nc(N)nc2nc[nH]c12
T/C (dose: 0.6 mg/kg/injection, schedule: Q01DX011 (ip), vehicle: carboxymethylcellulose (CMC)): 51 % of control | T/C (dose: 1.25 mg/kg/injection, schedule: Q01DX011 (ip), vehicle: carboxymethylcellulose (CMC)): 55 % of control | T/C [6]: 75 % of control | T/C [7]: 28 % of control | T/C [8]: 1 % of control

CSc1ncc(Br)c(Nc2ccccc2Cl)n1
T/C [2]: 110 % of control | T/C [3]: 104 % of control | T/C [4]: 155 % of control

Oc1ccc2ccccc2c1N=Nc1ccc(F)cc1
T/C [8]: 70 % of control | T/C (dose: 25.0 mg/kg/injection, schedule: Q01DX011 (ip), vehicle: carboxymethylcellulose (CMC)): 104 % of control | T/C (dose: 31.0 mg/kg/injection, schedule: Q01DX011 (ip), vehicle: carboxymethylcellulose (CMC)): 37 % of control | T/C (dose: 45.0 mg/kg/injection, schedule: Q01DX011 (ip), vehicle: carboxymethylcellulose (CMC)): 33 % of control | T/C (dose: 50.0 mg/kg/injection, schedule: Q01DX011 (ip), vehicle: carboxymethylcellulose (CMC)): 30 % of control | T/C (dose: 50.0 mg/kg/injection, schedule: Q01DX011 (ip), vehicle: saline): 38 % of control | T/C (dose: 62.0 mg/kg/injection, schedule: Q01DX011 (ip), vehicle: carboxymethylcellulose (CMC)): 46 % of control | T/C (dose: 100.0 mg/kg/injection, schedule: Q01DX011 (ip), vehicle: carboxymethylcellulose (CMC)): 27 % of control | T/C [1]: 12 % of control | T/C (dose: 200.0 mg/kg/injection, schedule: Q01DX011 (ip), vehicle: saline): 22 % of control | T/C (dose: 224.0 mg/kg/injection, schedule: Q01DX011 (ip), vehicle: carboxymethylcellulose (CMC)): 9 % of control | T/C (dose: 400.0 mg/kg/injection, schedule: Q01DX011 (ip), vehicle: carboxymethylcellulose (CMC)): 12 % of control and 15 % of control | T/C (dose: 400.0 mg/kg/injection, schedule: Q01DX011 (ip), vehicle: saline): 15 % of control | T/C (dose: 450.0 mg/kg/injection, schedule: Q01DX011 (ip), vehicle: carboxymethylcellulose (CMC)): 17 % of control | T/C (dose: 600.0 mg/kg/injection, schedule: Q01DX011 (ip), vehicle: saline): 14 % of control | T/C (dose: 800.0 mg/kg/injection, schedule: Q01DX011 (ip), vehicle: carboxymethylcellulose (CMC)): 21 % of control | T/C (dose: 1600.0 mg/kg/injection, schedule: Q01DX011 (ip), vehicle: carboxymethylcellulose (CMC)): 8 % of control

C[C@@H]1CC2=CC(=O)C=C[C@]2(C)[C@H]2CC[C@@]3(C)[C@@H](CC[C@]3(C)O)[C@H]12
T/C (dose: 400.0 mg/kg/injection, schedule: Q01DX011 (sc), vehicle: steriod suspending solution): 16 % of control | T/C (dose: 800.0 mg/kg/injection, schedule: Q01DX011 (sc), vehicle: steriod suspending solution): 33 % of control

O=c1[nH]cnc2c1ncn2C1CCCO1 (stereo not given)
T/C (dose: 30.0 mg/kg/injection, schedule: Q01DX011 (ip), vehicle: carboxymethylcellulose (CMC)): 80 % of control | T/C (dose: 60.0 mg/kg/injection, schedule: Q01DX011 (ip), vehicle: carboxymethylcellulose (CMC)): 105 % of control | T/C (dose: 120.0 mg/kg/injection, schedule: Q01DX011 (ip), vehicle: carboxymethylcellulose (CMC)): 106 % of control | T/C (dose: 240.0 mg/kg/injection, schedule: Q01DX011 (ip), vehicle: carboxymethylcellulose (CMC)): 75 % of control

Nc1ncc2[nH]c(N)nc2n1
T/C [9]: 58 % of control | T/C (dose: 75.0 mg/kg/injection, schedule: Q01DX011 (ip), vehicle: methylcellulose (MC)): 73 % of control

CCOC(=O)NP(=O)(N1CC1)N1CC1
T/C (dose: 2.37 mg/kg/injection, schedule: Q01DX011 (ip), vehicle: carboxymethylcellulose (CMC)): 118 % of control | T/C [6]: 67 % of control | T/C (dose: 4.75 mg/kg/injection, schedule: Q01DX011 (ip), vehicle: carboxymethylcellulose (CMC)): 104 % of control | T/C [7]: 73 % of control | T/C (dose: 7.6 mg/kg/injection, schedule: Q01DX011 (ip), vehicle: carboxymethylcellulose (CMC)): 101 % of control | T/C (dose: 8.0 mg/kg/injection, schedule: Q01DX011 (ip), vehicle: carboxymethylcellulose (CMC)): 52 % of control | T/C (dose: 9.5 mg/kg/injection, schedule: Q01DX011 (ip), vehicle: carboxymethylcellulose (CMC)): 61 % of control and 75 % of control | T/C (dose: 10.0 mg/kg/injection, schedule: Q01DX011 (ip), vehicle: carboxymethylcellulose (CMC)): 58 % of control and 77 % of control | T/C (dose: 12.66 mg/kg/injection, schedule: Q01DX011 (ip), vehicle: carboxymethylcellulose (CMC)): 54 % of control | T/C (dose: 13.3 mg/kg/injection, schedule: Q01DX011 (ip), vehicle: carboxymethylcellulose (CMC)): 18 % of control | T/C (dose: 19.0 mg/kg/injection, schedule: Q01DX011 (ip), vehicle: carboxymethylcellulose (CMC)): 17 % of control and 20 % of control | T/C (dose: 20.0 mg/kg/injection, schedule: Q01DX011 (ip), vehicle: carboxymethylcellulose (CMC)): 14 % of control

CCCn1cnc2c(SCc3ccccc3Cl)nc(N)nc21
T/C (dose: 0.78 mg/kg/injection, schedule: Q01DX011 (ip), vehicle: methylcellulose (MC)): 85 % of control | T/C (dose: 1.56 mg/kg/injection, schedule: Q01DX011 (ip), vehicle: methylcellulose (MC)): 72 % of control | T/C (dose: 3.0 mg/kg/injection, schedule: Q01DX011 (ip), vehicle: carboxymethylcellulose (CMC)): 70 % of control | T/C (dose: 3.12 mg/kg/injection, schedule: Q01DX011 (ip), vehicle: methylcellulose (MC)): 62 % of control | T/C [5]: 47 % of control | T/C (dose: 6.25 mg/kg/injection, schedule: Q01DX011 (ip), vehicle: methylcellulose (MC)): 60 % of control | T/C (dose: 12.0 mg/kg/injection, schedule: Q01DX011 (ip), vehicle: carboxymethylcellulose (CMC)): 45 % of control | T/C (dose: 12.5 mg/kg/injection, schedule: Q01DX011 (ip), vehicle: methylcellulose (MC)): 43 % of control | T/C (dose: 24.0 mg/kg/injection, schedule: Q01DX011 (ip), vehicle: carboxymethylcellulose (CMC)): 17 % of control | T/C [9]: 7 % of control | T/C (dose: 48.0 mg/kg/injection, schedule: Q01DX011 (ip), vehicle: carboxymethylcellulose (CMC)): 4 % of control | T/C (dose: 96.0 mg/kg/injection, schedule: Q01DX011 (ip), vehicle: carboxymethylcellulose (CMC)): 2 % of control | T/C (dose: 190.0 mg/kg/injection, schedule: Q01DX011 (ip), vehicle: carboxymethylcellulose (CMC)): 3 % of control | T/C (dose: 192.0 mg/kg/injection, schedule: Q01DX011 (ip), vehicle: carboxymethylcellulose (CMC)): 1 % of control | T/C (dose: 380.0 mg/kg/injection, schedule: Q01DX011 (ip), vehicle: carboxymethylcellulose (CMC)): 4 % of control

CC(=O)N(c1ccccc1)c1ccccc1
T/C (dose: 3.12 mg/kg/injection, schedule: Q01DX011 (ip), vehicle: other): 83 % of control | T/C (dose: 6.25 mg/kg/injection, schedule: Q01DX011 (ip), vehicle: other): 92 % of control | T/C (dose: 12.5 mg/kg/injection, schedule: Q01DX011 (ip), vehicle: other): 80 % of control | T/C (dose: 25.0 mg/kg/injection, schedule: Q01DX011 (ip), vehicle: other): 97 % of control

N#[N+]c1nc2ncnc(N)c2[nH]1
T/C (dose: 12.5 mg/kg/injection, schedule: Q01DX011 (ip), vehicle: saline): 101 % of control | T/C (dose: 25.0 mg/kg/injection, schedule: Q01DX011 (ip), vehicle: saline): 70 % of control
